Where “and” joins values, the source holds several entries; their conditions need not be identical. Equal values may be shown once.
Experiments:
[1] = system: BRD proteins in U2OS KO/rescue lysate; test: Degradation in non-denaturing lysates of U2OS KO/rescue cells; settings: non-denaturing U2OS KO/rescue lysate 4mg/ml, 10 µM, 30° C
BRD4 = BRD4 (Homo sapiens, UniProt O60885); test: Western blot of BRD4 levels after cellular dosing

With `COC(=O)CNC(=O)Cc1csc(-c2ccc3cccc(OCCN4CCN(C(=O)C[C@@H]5N=C(c6ccc(Cl)cc6)c6c(sc(C)c6C)-n6c(C)nnc65)CC4)c3c2)n1` [SJ46420] the “degrader dependent decrease in BRD protein levels in lysate” value [1] was “did not observe a degrader dependent decrease”, the “BRD4 level relative to DMSO (100%)” value (BRD4; 22Rv1, 0.16µM, 24 h, Fig S6f) was 105 +/- 5.8% and the “BRD4 level relative to DMSO (100%)” value (BRD4; 22Rv1, 0.63µM, 24 h, Fig S6f) was 101 +/- 7.2%. For the same molecule, the “BRD4 level relative to DMSO (100%)” value (BRD4; 22Rv1, 1.3µM, 24 h, Fig S6f) was 89 +/- 2.9%, the “BRD4 level relative to DMSO (100%)” value (BRD4; 22Rv1, 2.5µM, 24 h, Fig S6f) was 88 +/- 11% and the “BRD4 level relative to DMSO (100%)” value (BRD4; 22Rv1, 5µM, 24 h, Fig S6f) was 83 +/- 10%. The “BRD4 level relative to DMSO (100%)” value (BRD4; 22Rv1, 10µM, 24 h, Fig S6f) was 68 +/- 15%, the Dmax (BRD4; 22Rv1, read-out: BRD4 Dmax, 22Rv1, 24 h dose) was 30% and the “BRD4 level relative to DMSO (100%)” value (BRD4; 293T, 2.5µM, 24 h, Fig S6a) was 98 +/- 5.3%. For the same molecule, the “BRD4 level relative to DMSO (100%)” value (BRD4; 293T, 5µM, 24 h, Fig S6a) was 79 +/- 6.6%, the “BRD4 level relative to DMSO (100%)” value (BRD4; AU565, 0.2µM, 8 h, Fig S6c) was 82 +/- 4.7% and the “BRD4 level relative to DMSO (100%)” value (BRD4; AU565, 1µM, 8 h, Fig S6c) was 53 +/- 5.1%. The “BRD4 level relative to DMSO (100%)” value (BRD4; AU565, 5µM, 8 h, Fig S6c) was 4.1 +/- 1.3%, the “BRD4 level, Western blot quantification (DMSO = 100)” value (“BRD4 level … (DMSO = 100)” below) (BRD4; Fig 6b, KO/Rescue, 5 uM) was 91.0765 and 107.689 and the “BRD4 level … (DMSO = 100)” value (BRD4; Fig 6b, U2OS, 5 uM) was 77.4849 and 71.6749. For the same molecule, the “BRD4 level … (DMSO = 100)” value (BRD4; Fig 6c, 1 uM) was 92.7102 and 86.955, the “BRD4 level … (DMSO = 100)” value (BRD4; Fig 6d, 1 uM) was 67.4942 and 82.9736 and the “BRD4 level … (DMSO = 100)” value (BRD4; Fig 6d, 1uM together with 1uM MLN4924) was 118.408 and 100.267. For the same molecule, the “BRD4 level … (DMSO = 100)” value (BRD4; Fig S6a, 293T cells, 2.5 uM) was 94.5347 and 102.135, the “BRD4 level … (DMSO = 100)” value (BRD4; Fig S6a, 293T cells, 5 uM) was 74.6014 and 84.7353 and the “BRD4 level … (DMSO = 100)” value (BRD4; Fig S6b, MDA-MB468 Cells, 2 uM) was 86.0887 and 95.6433. The “BRD4 level … (DMSO = 100)” value (BRD4; Fig S6b, MDA-MB468 Cells, 5 uM) was 75.9577 and 82.1258, the “BRD4 level … (DMSO = 100)” value (BRD4; Fig S6b, MDA-MB468 Cells, 10 uM) was 65.8655 and 71.3135 and the “BRD4 level … (DMSO = 100)” value (BRD4; Fig S6c, AU565 Cells, 0.2 uM) was 78.2951 and 85.4236. For the same molecule, the “BRD4 level … (DMSO = 100)” value (BRD4; Fig S6c, AU565 Cells, 1 uM) was 49.0527 and 56.2352, the “BRD4 level … (DMSO = 100)” value (BRD4; Fig S6c, AU565 Cells, 5 uM) was 3.1923 and 5.662 and the “BRD4 level … (DMSO = 100)” value (BRD4; Fig S6e, PC3 KO/rescue Dose Response, 0.156 uM) was 98.9143 and 85.6296. For the same molecule, the “BRD4 level … (DMSO = 100)” value (BRD4; Fig S6e, PC3 KO/rescue Dose Response, 0.313 uM) was 95.5722 and 70.9157, the “BRD4 level … (DMSO = 100)” value (BRD4; Fig S6e, PC3 KO/rescue Dose Response, 0.625 uM) was 77.9263 and 60.6542 and the “BRD4 level … (DMSO = 100)” value (BRD4; Fig S6e, PC3 KO/rescue Dose Response, 1.25 uM) was 36.0358 and 57.3958. For the same molecule, the “BRD4 level … (DMSO = 100)” value (BRD4; Fig S6e, PC3 KO/rescue Dose Response, 2.5 uM) was 28.2357 and 25.3138, the “BRD4 level … (DMSO = 100)” value (BRD4; Fig S6e, PC3 KO/rescue Dose Response, 5 uM) was 3.953 and 2.975 and the “BRD4 level … (DMSO = 100)” value (BRD4; Fig S6e, PC3 KO/rescue Dose Response, 10uM) was 0.3603 and 0.6573. For the same molecule, the “BRD4 level … (DMSO = 100)” value (BRD4; Fig S6f, 22RV1 KO/rescue Dose Response, 0.156 uM) was 101.401 and 109.713, the “BRD4 level … (DMSO = 100)” value (BRD4; Fig S6f, 22RV1 KO/rescue Dose Response, 0.313 uM) was 109.261 and 111.474 and the “BRD4 level … (DMSO = 100)” value (BRD4; Fig S6f, 22RV1 KO/rescue Dose Response, 0.625 uM) was 106.365 and 96.1732. The “BRD4 level … (DMSO = 100)” value (BRD4; Fig S6f, 22RV1 KO/rescue Dose Response, 1.25 uM) was 91.1283 and 87.0112, the “BRD4 level … (DMSO = 100)” value (BRD4; Fig S6f, 22RV1 KO/rescue Dose Response, 2.5 uM) was 95.8637 and 80.8873 and the “BRD4 level … (DMSO = 100)” value (BRD4; Fig S6f, 22RV1 KO/rescue Dose Response, 5 uM) was 91.3116 and 76.191. For the same molecule, the “BRD4 level … (DMSO = 100)” value (BRD4; Fig S6f, 22RV1 KO/rescue Dose Response, 10uM) was 79.6577 and 57.9117, the “BRD4 level … (DMSO = 100)” value (BRD4; Fig S6g, SKBR3 Time course, 1 uM, 2hr) was 104.311 and 100.652 and the “BRD4 level … (DMSO = 100)” value (BRD4; Fig S6g, SKBR3 Time course, 1 uM, 4hr) was 75.4286 and 82.2353. For the same molecule, the “BRD4 level … (DMSO = 100)” value (BRD4; Fig S6g, SKBR3 Time course, 1 uM, 8hr) was 78.3987 and 72.5234, the “BRD4 level … (DMSO = 100)” value (BRD4; Fig S6g, SKBR3 Time course, 5 uM, 2hr) was 109.415 and 100.234 and the “BRD4 level … (DMSO = 100)” value (BRD4; Fig S6g, SKBR3 Time course, 5 uM, 4hr) was 59.7954 and 68.2545. For the same molecule, the “BRD4 level … (DMSO = 100)” value (BRD4; Fig S6g, SKBR3 Time course, 5 uM, 8hr) was 59.199 and 52.2362, the “BRD4 level … (DMSO = 100)” value (BRD4; Fig S6i, SKBR3, 5uM) was 72.6081 and 84.277 and the “BRD4 level … (DMSO = 100)” value (BRD4; Fig S6i, U2OS, 5uM) was 157.053 and 196.781.

— publication PMC11470957, “Principles of paralog-specific targeted protein degradation engaging the C-degron E3 KLHDC2” (Nature Communications, 2024)
